In ChEMBL document CHEMBL5131462, “5'-Phosphonate modified oligoadenylates as potent activators of human RNase L” (Bioorg Med Chem, 2022):

Assays:
[1] = Activation of human RNase L using [CY5]-r(C11-UUC7)- [BHQ2] as substrate assessed as cleavage of fluorescent substrate by measuring increase in fluorescence incubated for 30 mins by FRET assay
[2] = organism: Homo sapiens; assay: Activation of human RNase L using [CY5]-r(C11-UUC7)- [BHQ2] as substrate assessed as cleavage of fluorescent substrate by measuring increase in fluorescence at 100 nM incubated for 30 mins by FRET assay relative to control; details: filed as activator
[3] = organism: Homo sapiens; assay: Activation of human RNase L assessed as reduction in Vmax using varying concentrations of [CY5]-r(C11-UUC7)- [BHQ2] as substrate incubated for 30 mins by FRET assay relative to control; design: scale not given: the % may be the effect or the level left; details: filed as activator

Compound | EC50 [1] [nM] | Activity [2] [%] | Activity [3] [%]
C[C@]1(OCP(=O)(O)O)O[C@@H](n2cnc3c(N)ncnc32)[C@H](OP(=O)(O)OC[C@H]2O[C@@H](n3cnc4c(N)ncnc43)[C@H](OP(=O)(O)OC[C@H]3O[C@@H](n4cnc5c(N)ncnc54)[C@H](O)[C@@H]3O)[C@@H]2O)[C@@H]1O | 35.7 | > 75 | –
Nc1ncnc2c1ncn2[C@@H]1O[C@H](COP(=O)(O)O[C@@H]2[C@H](O)[C@@H](COP(=O)(O)O[C@@H]3[C@H](O)[C@@H](CNC(=O)P(=O)(O)O)O[C@H]3n3cnc4c(N)ncnc43)O[C@H]2n2cnc3c(N)ncnc32)[C@@H](O)[C@H]1O | 20.9 | > 75 | –
Nc1ncnc2c1ncn2[C@@H]1O[C@H](COP(=O)(O)O[C@@H]2[C@H](O)[C@@H](COP(=O)(O)O[C@@H]3[C@H](O)[C@@H](OCP(=O)(O)O)O[C@H]3n3cnc4c(N)ncnc43)O[C@H]2n2cnc3c(N)ncnc32)[C@@H](O)[C@H]1O | 18.9 | > 75 | –
Nc1ncnc2c1ncn2[C@@H]1O[C@H](COP(=O)(O)O[C@@H]2[C@H](O)[C@@H](COP(=O)(O)O[C@@H]3[C@H](O)[C@@H](COCP(=O)(O)O)O[C@H]3n3cnc4c(N)ncnc43)O[C@H]2n2cnc3c(N)ncnc32)[C@@H](O)[C@H]1O | 46.1 | > 75 | 33
Nc1ncnc2c1ncn2[C@@H]1O[C@H](COP(=O)(O)O[C@@H]2[C@H](O)[C@@H](COP(=O)(O)O[C@@H]3[C@H](O)[C@@H](COP(=O)(O)O)O[C@H]3n3cnc4c(N)ncnc43)O[C@H]2n2cnc3c(N)ncnc32)[C@@H](O)[C@H]1O | 15.3 | – | –
Nc1ncnc2c1ncn2[C@@H]1O[C@H](COP(=O)(O)O[C@@H]2[C@H](O)[C@@H](COP(=O)(O)O[C@@H]3[C@H](O)[C@@H](CSCP(=O)(O)O)O[C@H]3n3cnc4c(N)ncnc43)O[C@H]2n2cnc3c(N)ncnc32)[C@@H](O)[C@H]1O | 33.8 | > 75 | 33
Nc1ncnc2c1ncn2[C@@H]1O[C@H](COP(=O)(O)O[C@@H]2[C@H](O)[C@@H](COP(=O)(O)O[C@@H]3[C@H](O)[C@@H](COCC(O)P(=O)(O)O)O[C@H]3n3cnc4c(N)ncnc43)O[C@H]2n2cnc3c(N)ncnc32)[C@@H](O)[C@H]1O (stereo partly specified) | 55.2 | > 75 | 33
